According to patent publication US20220017491A1, “COMPOUND INHIBITING YAP-TEAD BINDING, AND PHARMACEUTICAL COMPOSITION FOR PREVENTING OR TREATING CANCER, COMPRISING COMPOUND AS ACTIVE INGREDIENT” (KOREA RESEARCH INSTITUTE OF CHEMICAL TECHNOLOGY, priority 2018, published 2022):
pIC50: −log10 of the molar value.

What was measured:
HT29 cells = assay: Proliferation assay for HT29 colorectal cancer cells (CellTiter-Glo cell viability); assay type: cell-based; conditions: Homo sapiens, HT-29; HT29 colorectal cancer cell line, 72 hours, ATP detection
Procedure: HT-29 which is a commercially available colorectal cancer cell line was treated with trypsin-EDTA, incubated, and seeded in a 96 well plate. […] The treated cells were incubated for further 72 hours and cell viability was measured by an ATP detection method (CellTiter-Glo LuminescentCell Viability Assay, Promega).
In order to confirm the anticancer effect of the compounds according to the present invention, a proliferation assay for HT29 cells which are a colorectal cancer cell line was performed by the above method, and IC50 values as a result are listed in the following Table 4: […]

YAP-TEAD = assay: Luciferase assay of YAP-TEAD binding inhibition (TEAD luciferase reporter 8XGTIIC in HEK293T cells); assay type: cell-based; conditions: 10 μM, 24 hours, luciferase normalized with β-galactosidase
Procedure: A Luciferase assay which allows an inhibition degree of YAP-TEAD, previously reported in Cancers 2018, 10(5), 140, was used to measure an in vitro binding inhibition rate of YAP-TEAD.
HEK293T cells were purchased from American Type Culture Collection and incubated in DMEM media containing 10% FBS, L-glutamine, and penicillin/streptomycin. The HEK293T cells were seeded in a 24 well plate at a density of 1×10^5, and coated with polyethyleneamine (10 μg/mL). These cells were transfected with 8XGTIIC-luciferase (Addgene reference 34615) which is TEAD luciferase reporter plasmid and control β-galactosidase plasmid CMV-β-Gal using a lipofectamine 2000 reagent (Life Technologies, Inc.) according to the manufacturer's manual. Thereafter, the compound of the present invention was treated at a concentration of 10 μM for 24 hours, the cells were lysed using a Reporter lysis buffer (Promega, France), luciferase activity was read with a Mithras LB940 plate reader, and then normalization was performed with β-galactosidase.

| Structure (SMILES) | pIC50 (HT29 cells) | Inhibition(%) (YAP-TEAD) |
| --- | --- | --- |
| CS(=O)(=O)N1CCCCC1C(=O)Nc1ccc2c3c(cccc13)C(=O)N2Cc1ccccc1 (stereo not drawn) [Compound 9] | 4.60 | – |
| COCCN1C(=O)c2cccc3c(NC(=O)C4CCCCN4S(=O)(=O)c4cccs4)ccc1c23 (stereo not drawn) [Compound 12] | 4.51 | – |
| O=C(Nc1ccc2c3c(cccc13)C(=O)N2Cc1ccncc1)C1CCCCN1S(=O)(=O)c1cccs1 (stereo not drawn) [Compound 18] | 4.58 | – |
| N#CCCCN1C(=O)c2cccc3c(NC(=O)C4CCCCN4S(=O)(=O)c4cccs4)ccc1c23 (stereo not drawn) [Compound 20] | 4.49 | 65 |
| N#CCCN1C(=O)c2cccc3c(NC(=O)C4CCCCN4S(=O)(=O)c4cccs4)ccc1c23 (stereo not drawn) [Compound 21] | 4.47 | 59 |
| COCCCN1C(=O)c2cccc3c(NC(=O)C4CCCCN4S(=O)(=O)c4ccc(Cl)s4)ccc1c23 (stereo not drawn) [Compound 30] | 4.66 | 56 |
| COCCCN1C(=O)c2cccc3c(NC(=O)C4CCCCN4S(=O)(=O)c4ccc5c(c4)CCO5)ccc1c23 (stereo not drawn) [Compound 39] | 4.69 | 66 |
| COCCCN1C(=O)c2cccc3c(NC(=O)C4CCCCN4S(=O)(=O)c4ccc(OC)c(OC)c4)ccc1c23 (stereo not drawn) [Compound 42] | 4.35 | 68 |
| COCCCN1C(=O)c2cccc3c(NC(=O)C4CCCCN4S(=O)(=O)c4sc(NC(C)=O)nc4C)ccc1c23 (stereo not drawn) [Compound 43] | 4.46 | 50 |
| O=C(Nc1ccc2c3c(cccc13)C(=O)N2CCCO)C1CCCCN1S(=O)(=O)c1cccs1 (stereo not drawn) [Compound 45] | 4.39 | – |
| COCCCN1C(=O)c2cccc3c(NC(=O)C4CCCN(S(=O)(=O)c5sc(NC(C)=O)nc5C)C4)ccc1c23 (stereo not drawn) [Compound 47] | 4.53 | – |
| COCCCN1C(=O)c2cccc3c(NC(=O)C4CCCN(S(=O)(=O)c5scnc5C)C4)ccc1c23 (stereo not drawn) [Compound 64] | 4.61 | 76 |
| COCCCN1C(=O)c2cccc3c(NC(=O)C4CCCN(S(=O)(=O)c5cc6c(s5)CCCC6)C4)ccc1c23 (stereo not drawn) [Compound 65] | 4.76 | – |
| COCCCN1C(=O)c2cccc3c(NC(=O)C4CCCN(S(=O)(=O)c5cccc6nsnc56)C4)ccc1c23 (stereo not drawn) [Compound 69] | 4.77 | 94 |
| COCCCN1C(=O)c2cccc3c(NC(=O)C4CCCN(S(=O)(=O)c5cccc6cccnc56)C4)ccc1c23 (stereo not drawn) [Compound 75] | 4.77 | 93 |
| COCCCN1C(=O)c2cccc3c(NC(=O)C4CCCCN4S(=O)(=O)c4c(Cl)nc5sccn45)ccc1c23 (stereo not drawn) [Compound 78] | 4.52 | 53 |

| Structure (SMILES) | pIC50 (HT29 cells) | Inhibition(%) (YAP-TEAD) |
| --- | --- | --- |
| COCCCN1C(=O)c2cccc3c(NC(=O)C4CCCCN4S(=O)(=O)c4cccc5nsnc45)ccc1c23 (stereo not drawn) [Compound 79] | 4.85 | 71 |
| COCCCN1C(=O)c2cccc3c(NC(=O)C4CCCCN4S(=O)(=O)c4scnc4C)ccc1c23 (stereo not drawn) [Compound 81] | 4.34 | – |
| COCCCN1C(=O)c2cccc3c(NC(=O)C4CCCCN4S(=O)(=O)c4cccc(C(F)(F)F)n4)ccc1c23 (stereo not drawn) [Compound 82] | 4.51 | – |
| COCCCN1C(=O)c2cccc3c(NC(=O)C4CCCCN4S(=O)(=O)c4ccc5c(c4)OCCO5)ccc1c23 (stereo not drawn) [Compound 83] | 4.71 | 92 |
| COCCCN1C(=O)c2cccc3c(NC(=O)C4CCCCN4S(=O)(=O)c4ccc(N)cc4)ccc1c23 (stereo not drawn) [Compound 145] | – | 53 |
| COCCCN1C(=O)c2cccc3c(NC(=O)C4CCCN(S(=O)(=O)c5ccc6c(c5)OC(F)(F)O6)C4)ccc1c23 (stereo not drawn) [Compound 149] | – | 59 |
| COCCCN1C(=O)c2cccc3c(NC(=O)C4CCCN(S(=O)(=O)c5ccc(-c6ccccc6)cc5)C4)ccc1c23 (stereo not drawn) [Compound 151] | – | 57 |
| COCCCN1C(=O)c2cccc3c(NC(=O)C4CCCCN4S(=O)(=O)c4ccc(-c5ccccc5)cc4)ccc1c23 (stereo not drawn) [Compound 152] | – | 77 |
| COCCCN1C(=O)c2cccc3c(NC(=O)C4CCCCN4S(=O)(=O)c4ccc(NC(C)=O)cc4)ccc1c23 (stereo not drawn) [Compound 153] | – | 55 |
| O=C(Nc1ccc2c3c(cccc13)C(=O)N2CCS(=O)(=O)c1ccccc1)C1CCCN(S(=O)(=O)c2ccc3c(c2)CCO3)C1 (stereo not drawn) [Compound 155] | – | 66 |
| O=C(Nc1ccc2c3c(cccc13)C(=O)N2CCS(=O)(=O)c1ccccc1)C1CCCCN1S(=O)(=O)c1ccc2c(c1)CCO2 (stereo not drawn) [Compound 156] | – | 64 |
| COCCCN1C(=O)c2cccc3c(NC(=O)C4CCCN(S(=O)(=O)c5ccc(-c6ccccc6)s5)C4)ccc1c23 (stereo not drawn) [Compound 158] | – | 61 |
| COCCCN1C(=O)c2cccc3c(NC(=O)C4CCCCN4S(=O)(=O)c4ccc(-c5ccccc5)s4)ccc1c23 (stereo not drawn) [Compound 159] | – | 84 |
| COCCCN1C(=O)c2cccc3c(NC(=O)C4CCCCN4S(=O)(=O)c4ccco4)ccc1c23 (stereo not drawn) [Compound 160] | – | 53 |
| COCCCN1C(=O)c2cccc3c(NC(=O)C4CCCN(S(=O)(=O)c5ccc(F)cc5)C4)ccc1c23 (stereo not drawn) [Compound 161] | – | 88 |
| COCCCN1C(=O)c2cccc3c(NC(=O)C4CCCCN4S(=O)(=O)c4cccc(F)c4)ccc1c23 (stereo not drawn) [Compound 162] | – | 74 |

Further compounds by rising pIC50 (HT29 cells), results first:

| pIC50 (HT29 cells) | Structure (SMILES) | Inhibition(%) (YAP-TEAD) |
| --- | --- | --- |
| 4.88 | COCCCN1C(=O)c2cccc3c(NC(=O)C4CCCN(S(=O)(=O)c5ccc6c(c5)CCO6)C4)ccc1c23 (stereo not drawn) [Compound 34] | 87 |
| 4.90 | COCCCN1C(=O)c2cccc3c(NC(=O)C4CCCCN4S(=O)(=O)c4ccc(Br)s4)ccc1c23 (stereo not drawn) [Compound 60] | 67 |
| 4.91 | COCCCN1C(=O)c2cccc3c(NC(=O)C4CCCN(S(=O)(=O)c5ccc(Cl)s5)C4)ccc1c23 (stereo not drawn) [Compound 29] | 87 |
| 4.92 | CN(CCCN1C(=O)c2cccc3c(NC(=O)C4CCCCN4S(=O)(=O)c4cccs4)ccc1c23)S(C)(=O)=O (stereo not drawn) [Compound 117] | 85 |
| 4.96 | COCCCN1C(=O)c2cccc3c(NC(=O)C4CCCN(S(=O)(=O)c5c(Cl)nc6sccn56)C4)ccc1c23 (stereo not drawn) [Compound 68] | 81 |
| 4.99 | COC(C)(C)CCN1C(=O)c2cccc3c(NC(=O)C4CCCCN4S(=O)(=O)c4cccs4)ccc1c23 (stereo not drawn) [Compound 58] | 65 |
| 5.01 | COCCCN1C(=O)c2cccc3c(NC(=O)C4CCCN(S(=O)(=O)c5ccc6c(c5)OCO6)C4)ccc1c23 (stereo not drawn) [Compound 56] | 63 |
| 5.06 | COCCCN1C(=O)c2cccc3c(NC(=O)C4CCCCN4S(=O)(=O)c4c(Cl)sc(Cl)c4Br)ccc1c23 (stereo not drawn) [Compound 66] | 59 |
| 5.09 | COCCCN1C(=O)c2cccc3c(NC(=O)C4CCCCN4S(=O)(=O)c4cc5c(s4)CCCC5)ccc1c23 (stereo not drawn) [Compound 84] | 83 |
| 5.12 | COCCCN1C(=O)c2cccc3c(NC(=O)C4CCCN(S(=O)(=O)c5ccc(Br)s5)C4)ccc1c23 (stereo not drawn) [Compound 59] | 87 |
| 5.14 | O=C(Nc1ccc2c3c(cccc13)C(=O)N2Cc1ccccc1)C1CCCCN1S(=O)(=O)c1ccc([N+](=O)[O-])cc1 (stereo not drawn) [Compound 6] | – |
| 5.15 | Cc1ccc(S(=O)(=O)N2CCCCC2C(=O)Nc2ccc3c4c(cccc24)C(=O)N3Cc2ccccc2)cc1 (stereo not drawn) [Compound 5] | – |
| 5.19 | COCCCN1C(=O)c2cccc3c(NC(=O)C4CCCN(S(=O)(=O)c5ccc(OCCOC)c(C)c5)C4)ccc1c23 (stereo not drawn) [Compound 122] | 68 |
| 5.25 | COCCCN1C(=O)c2cccc3c(NC(=O)C4CCCN(S(=O)(=O)c5cc(Br)c(Br)s5)C4)ccc1c23 (stereo not drawn) [Compound 61] | – |
| 5.25 | COCCCN1C(=O)c2cccc3c(NC(=O)C4CCCCN4S(=O)(=O)c4cc(Br)c(Br)s4)ccc1c23 (stereo not drawn) [Compound 80] | 77 |
| 5.37 | O=C(Nc1ccc2c3c(cccc13)C(=O)N2CCc1ccc([N+](=O)[O-])cc1)C1CCCCN1S(=O)(=O)c1cccs1 (stereo not drawn) [Compound 16] | 77 |
| 5.52 | COc1ccc(CCN2C(=O)c3cccc4c(NC(=O)C5CCCCN5S(=O)(=O)c5cccs5)ccc2c34)cc1 (stereo not drawn) [Compound 15] | 81 |
| 5.54 | COCCCN1C(=O)c2cccc3c(NC(=O)C4CCCCN4S(=O)(=O)c4ccc(-c5ccccn5)s4)ccc1c23 (stereo not drawn) [Compound 118] | 84 |
| 5.66 | COCCCN1C(=O)c2cccc3c(NC(=O)C4CCCCN4S(=O)(=O)c4cc([N+](=O)[O-])c(Cl)s4)ccc1c23 (stereo not drawn) [Compound 38] | – |
